Data: patent US20060094790A1, “Use of sphingosine kinase activator as skin disease treating agent and method for treating skin diseases using the same” (priority 2004, published 2006)

Columns and labels:
keratinocytes = experiment: Differentiation of keratinocytes (western blotting of involucrin and keratin-1); format: cell-based; settings: 10 μM, 48 hours, FIG. 2
Description: In order to evaluate the effect of the above compound according to the present invention upon differentiation of keratinocytes, each of K6PC4, K6PC-5, K6PC-7 and K6PC-9 was dissolved in DMSO at a concentration of 10 μM and used as sample. Evaluation was performed by using the western blotting method. As differentiation markers, involucrin and keratine-1, which were differentiation markers of keratinocytes, were measured. Next, 48 hours after the treatment of samples, the culture solution was discarded and the cells were washed with PBS and collected by filtering. The collected cells were washed again and subjected to centrifugal separation to remove supernatant. The cells were dissolved in a solvent and subjected to centrifugal separation at 12,000 rpm for 10 minutes, thereby removing cell membranes, etc. Protein concentration was determined by the Bradford method. Proteins were separated by mini gel type SDS-PAGE (polyacrylamide gel electrohoresis) and transferred to a PVDF (polyvinylidene fluoride) membrane at 100V for 1 hour, so that gel-like proteins were subjected to blotting with a transfer membrane. Then, the membrane was colored with Ponceau S solution to determine whether transfer was accomplished or not. The membrane was blocked by using TTBS (TBS+0.1% Tween 20) solution containing 5% non-fat dried milk. In order to check the amount of involucrin as differentiation marker of keratinocytes, primary antibody involucrin (Neomarkers Co.) was diluted at a ratio of about 1/200 to 1.400, and keratin-1 (Covance Co.) was diluted at a ratio of about 1/1000. Reactions were performed overnight at 4° C. As secondary antibody, anti-mouse IgG and anti-rabbit IgG combined with horseradish peroxidase (HRP) was diluted at a ratio of 1:2000. Then, the secondary antibody was bonded to the primary antibody by making them react at room temperature for 1 hour. The membrane was washed with TTBS three times, reacted with an ECL substrate (Amersham Co.) for 1-3 minutes, and exposed to X-ray films.

fibroblasts = experiment: Collagen synthesis in fibroblasts (PICP, collagen measuring kit); format: cell-based; settings: 72 hours; for Amount of PICP produced in fibroblasts (average ± SEM): non-treated control 47.1 ± 9.7
Description: The following experiment was performed by using fibroblasts in order to evaluate the effect of sphingosine kinase activator upon collagen synthesis.
Each of K6PC4, K6PC-5, K6PC-7 and K6PC-9 was dissolved in DMSO at a concentration of 0.3 and 1.0 μg/ml. The solutions were used as samples and analyzed for collagen synthesis after incubation for 72 hours. 72 hours after the treatment of the sample, culture solution was discarded, cells were washed with serum-free DMEM three times, and cells were cultured again by using flesh serum-free DMEM. After incubation, supernatant in each well was combined and analyzed for the amount of PICP (procollagen type I C-peptide) by using a collagen measuring kit. The standard solution contained in the collagen measuring kit was diluted with a sample and absorption at 450 nm was measured to construct a standard concentration curve (see the following Table 2).
To an antibody-coated microtiter plate comprising a primary collagen antibody applied unifomrily thereto, 100 μl of an antibody-POD conjugate solution and the cell supernatant collected as described above were added, followed by incubation at 37° C. for 3 hours, to induce an antigen-antibody reaction. Then, the reaction mixture was subjected to washing and color developing. After the reaction, the reaction mixture developed a yellow color, wherein the yellowness depended on reaction degrees. Also, 96 well plates developing a yellow color were determined at 450 nm by using a microtiter plate reader.

rabbits = settings: rabbit, in vivo
Description: (§1) Those tests were performed based on “Toxicity Test Standards for Pharmaceutical Products” disclosed by the Korea Food & Drug Administration.

rats = settings: rat, in vivo
Description: as §1

sphingosine kinase = target: T1, sphingosine kinase (Mus musculus, UniProt Q8CI15); experiment: Activation of sphingosine kinase (C17-sphingosine-1-phosphate production, HPLC); format: cell-based; settings: F9-12 cells, 24 hours, 50 μM compound, PMA 300 nM
T1 construct: host or cells: F9-12 cells
Description: The following test for activation of sphingosine kinase was performed to determine whether the effects of the above compounds upon intracellular calcium signal transfer as described in Example 1 were caused by activation of sphingosine kinase.
F9-12 cells were treated with 300 nM of PMA ([…]) as positive control, and 50 μM of each of K6PC4 and K6PC-5 for 24 hours and collected. Then, activity of sphingosine kinase was measured as production of C17-sphingosine-1-phosphate based on 50 μg of protein. Sphingosine-1-phospate was extracted from the collected cells by the steps of: (1) treating with trypsin-EDTA, (2) centrifugal separation at 1,500 rpm for 10 minutes, and (3) washing with PBS, followed by freeze-drying. Then, PBS was added to the freeze-dried product and the resultant product was treated with ultrasonic waves to destroy cells. Sphingosine-1-phosphate was determined by HPLC, and OPA (o-phthalaldehyde) reagent and boric acid buffer were added to the extracted sample and the mixture was reacted at room temperature for 20 minutes. For the HPLC quantitive analysis, fluorescence intensity was measured at each wavelength of 340 nm and 455 nm with a solution in 90% acetonitrile, and a ratio to the internal standard was calculated.

T1 sequence (Q8CI15 1-381 isoform Q8CI15-3): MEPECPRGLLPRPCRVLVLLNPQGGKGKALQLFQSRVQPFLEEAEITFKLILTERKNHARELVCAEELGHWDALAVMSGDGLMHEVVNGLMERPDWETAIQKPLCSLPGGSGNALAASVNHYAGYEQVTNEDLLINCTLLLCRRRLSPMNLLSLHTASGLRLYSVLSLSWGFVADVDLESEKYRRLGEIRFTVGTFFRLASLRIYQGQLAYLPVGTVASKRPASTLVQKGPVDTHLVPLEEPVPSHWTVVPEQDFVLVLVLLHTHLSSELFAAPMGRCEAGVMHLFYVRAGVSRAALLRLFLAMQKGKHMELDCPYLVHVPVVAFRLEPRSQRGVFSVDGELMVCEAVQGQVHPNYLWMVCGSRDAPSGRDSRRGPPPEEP
Description for human subjects: In this example, effects of improving wrinkles were evaluated in 32 subjects (average age: 46.7). During the total period of 8 weeks, a cream containing 1% of K6PC-5 and cream containing no K6PC-5 (control) were applied around both eye rims and then instrumental evaluation was performed. A silicone replica for the eye tail part of a subject was formed, and the replica was irradiated with light at an angle. Then, a shading degree formed by wrinkles in the replica was photographed by a CCD camera, and the image was determined for a wrinkling degree by using a computer image analysis system. More particularly, a program of Skin Visiometer SV 600 available from C+K Co. (Germany) was used for determination, wherein wrinkle parameters are expressed as R1 through R5 values. R1, R2 and R3 represent deep wrinkles and R4 and R5 represent shallow wrinkles.

- C17-SIP Production (sphingosine kinase; non-treated control 51.72): 75.59 pmol/min/mg
- increase in production of sphingosine-1-phosphate (sphingosine kinase; versus non-treated control): about 46%
Compound: CCCCCCCC(=O)C(CCCCCC)C(=O)NC(CO)CO (stereo not shown) [K6PC-5, N-(1,3-dihydroxyisopropyl)-2-hexyl-3-oxo-decanamide]
- expression of differentiation markers (involucrin, keratin-1) (keratinocytes): expressed the differentiation markers
- Amount of PICP produced in fibroblasts (average ± SEM) (fibroblasts; 0.3 μg/ml): 111.2 ± 3.9
- Amount of PICP produced in fibroblasts (average ± SEM) (fibroblasts; 1.0 μg/ml): 96.0 ± 5.6
- collagen synthesis increase as compared to the non-treated control (fibroblasts; fibroblasts, 0.3 or 1.0 μg/ml (concentration not given)): about 2.4 times
- Ophthalmic mucous membrane irritation test result (rabbits): No irritation
- improvement in the condition of wrinkles around the eye (human subjects; cream containing 1% of K6PC-5, 8 weeks, versus control cream, P<0.05 t-test): statistically significant improvement in the condition of wrinkles
- skin irritation or hypersensitive reaction (inspection of dermatologists) (human subjects; human, in vivo): no skin irritation or hypersensitive reaction
- Single dose oral toxicity test result (rats): No irritation
